Measured values as given in patent US6864249B2, “Piperidine and azetidine thrombin inhibitors” (LG Life Sciences, Ltd., priority 1998, dated 2005).
Counter-ions that a name gives are not always drawn. Like-named read-outs stand apart in the source and are kept apart here.

Columns and labels:
[1] = test system: thrombus formation; assay: Rat venous thrombosis model (thromboplastin infusion and vena cava stasis, clot weight); format: in vivo, Male Sprague-Dawley rats; settings: 1 mg/kg iv bolus 5 min before thromboplastin infusion
Method: In vivo Studies of the Compounds Claimed Herein Were Conducted Using the Following Procedure
Male Sprague-Dawley rats (body weights 250-300 g, 3-4/group) were anaesthetized by intraperitoneal injection with urethane solution (1.25 g/kg). […] The venae iliolumbar and spermatica were ligated with a silk thread. Thrombus formation was initiated by infusion of a thromboplastin preparation (Simplastin®) using an infusion pump (Model 100, IITC Life Science, USA) via the left femoral vein at 0.5 mL/kg/min. Simplastin® (Organon Teknika, USA) was reconstituted with 4 mL of distilled water and then given diluted at 1:2.5 in distilled water. At the start of infusion for 30 seconds, the vena cava was ligatured below the left renal vein. After the end of infusion, vena cava was also ligatured above the iliac veins 16 mm apart from upper ligature. After 15 min of stasis, the thrombus formed inside the vessel was carefully removed and weighed. Before wighing, the excess blood was removed by blotting the wet clot on the wet Whatman filter paper (see, Millet, J.; Theveniaux, J.; Brown, N. L. Thromb. Haemost. 1992, 67, 176).
Saline (control) or test compounds (1 mg/kg) were injected as a bolus via the femoral vein starting 5 min before the thromboplastin infusion. Bolus injection volume was 0.5 mL/kg. Antithrombotic activity was expressed as a percentage where: Antithrombotic activity (%)=100×(A−B)/A • A=mean clot weight of control group • B=mean clot weight of test compound group

[2] = molecular target: T1, Thrombin prepared from human plasma (Homo sapiens, UniProt P00734); assay: In vitro enzyme assay for thrombin inhibition constants (Chromozym TH substrate, Dixon plot); format: biochemical; settings: pH 7.8, room temperature
T1 construct: Thrombin used in this test was prepared from human plasma; from tissue; host or cells: human plasma
Method: In vitro Enzyme Assays for Determining Inhibition Constants
The activity of thrombin was measured spectrophotometrically using tosyl-Gly-Pro-Arg-p-nitroanilide acetate (Chromozym TH, Boehringer Mannheim) as a substrate. […] Each compound was dissolved in DMSO to make a 1 mM stock solution and dilutions were made thereof with assay buffer (0.1 M Tris HCl, 0.15 M NaCl, 0.1% polyethylene glycol 8000, pH 7.8). Different concentrations of inhibitor were mixed with […] of thrombin in 0.8 mL of the buffer. The mixture was incubated for 10 min at room temperature before adding 0.2 mL of the substrate to a final concentration of 20 μM. […] A graph for the reciprocal value of initial velocity to the inhibitor concentration was derived from progress curves by fitting the data using a linear regression program.

[3] = Pharmacokinetic study for oral bioavailability in rats; format: in vivo, Male Sprague-Dawley rats; settings: oral dosing in rats, 30 mg/kg
Method: Pharmacokinetic Studies for Determining Oral Bioavailability
Male Sprague-Dawley rats (250-300 g) were restrained individually in a surgical plate (Dae Jong Instrument Company, Seoul, Korea) as supine position. The femoral artery and the femoral vein (iv only) of rats were cannulated with polyethylene tubing (PE-50, Clay Adams, Parsippany, N.J., USA) under light ether anesthesia. After complete recovery from anesthesia, rats were given 30 mg/kg of test compound dissolved in distilled water via oral gavage or given 10 mg/kg via the femoral vein for intravenous (iv) study. Blood samples (0.25 mL) were collected from the femoral artery at 0 (for control), 1 (iv only), 5, 15, 30, 60, 90 (iv only), 120, 180, and 240 min after dosing.
Blood samples were taken into heparinized tube (25 U/mL), deproteinized with 2 volumes of methanol, and centrifuged. The resulting supernatant (60 μL) was analyzed by HPLC eluting with a mixture of 0.1% trifluoroacetic acid aqueous solution and acetonitrile with a ratio of 81% to 19%. Plasma concentration of test compound was recorded and used to calculate the pharmacokinetic parameters: maximum plasma concentration of test compound (Cmax), time of maximum plasma concentration (Tmax) area under the curve (AUC), and fraction of test compound absorbed (F).
Table 2 illustrates the pharmacokinetic results for some exemplary compounds of invention obtained upon oral dosing in rats.

[4] = male, Sprague-Dawley, rat, plasma
[5] = male, Sprague-Dawley, rat, plasma, read-out: AUC (converted)
[6] = male, Sprague-Dawley, rat, plasma, read-out: Cmax

| SMILES | Ki [2] [nM] | Tmax [3, 4] [min] | AUC [3] [µg·min/mL] | Cmax [3] [ng/mL] | AUC [3, 5] [µg·min/mL] | Cmax [3, 6] [ng/mL] | Antithrombotic activity (inhibition of thrombus formation) [1] [%] |
| --- | --- | --- | --- | --- | --- | --- | --- |
| N=C(N)c1cc(CNC(=O)[C@@H]2CCCN2C(=O)[C@H](NS(N)(=O)=O)C(c2ccccc2)c2ccccc2)cs1 [Example 15, N-aminosulfonyl-D-diphenylalanyl-L-prolyl-[(5-amidino-3-thienyl)methyl]amide.TFA] | 0.056 |  |  |  |  |  | 100 |
| N=C(N)c1ccc(CNC(=O)[C@@H]2CCCN2C(=O)[C@H](NCC(=O)O)C(c2ccccc2)c2ccccc2)s1 [Example 29, N-carboxymethyl-D-diphenylalanyl-L-prolyl-[(5-amidino-2-thienyl)methyl]amide.2TFA] | 0.015 | 15 | 1390 | 9500 |  |  | 100 |
| N=C(N)c1ccc(CNC(=O)[C@@H]2CCCN2C(=O)[C@H](NS(N)(=O)=O)C(c2ccccc2)c2ccccc2)s1 [Example 1, N-aminosulfonyl-D-diphenylalanyl-L-prolyl-[(5-amidino-2-thienyl)methyl]amide.TFA] |  | 60 |  | 2200 | 253 |  | 100 |
| CS(=O)(=O)N[C@@H](C(=O)N1CCC[C@H]1C(=O)NCc1ccc(CN)s1)C(c1ccccc1)c1ccccc1 [Example 5, N-methylsulfonyl-D-diphenylalanyl-L-prolyl-[(5-aminomethyl-2-thienyl)methyl]amide.TFA] | 5.8 | 32 |  |  | 280 | 1800 |  |
| COC(=O)N[C@@H](C(=O)N1CCC[C@H]1C(=O)NCc1csc(C(=N)N)c1)C(c1ccccc1)c1ccccc1 [Example 19, N-methoxycarbonyl-D-diphenylalanyl-L-prolyl-[(5-amidino-3-thienyl)methyl]amide.TFA] | 0.06 | 80 | 1297 |  |  | 5200 | 100 |
| N=C(N)c1cc(CNC(=O)[C@@H]2CCCN2C(=O)[C@H](NCC(=O)O)C(c2ccccc2)c2ccccc2)cs1 [Example 39, N-carboxymethyl-D-diphenylalanyl-L-prolyl-[(5-amidino-3-thienyl)methyl]amide.2TFA] |  | 15 | 212 | 4600 |  |  |  |
| COC(=O)N[C@@H](C(=O)N1CCC[C@H]1C(=O)NCc1cc(C(=N)N)cs1)C(c1ccccc1)c1ccccc1 [Example 14, N-methoxycarbonyl-D-diphenylalanyl-L-prolyl-[(4-amidino-2-thienyl)methyl]amide.TFA] |  | 80 | 850 |  |  | 4500 |  |

Continued by falling Ki [2], values first:

| Ki [2] [nM] | Tmax [3, 4] [min] | AUC [3] [µg·min/mL] | Cmax [3] [ng/mL] | AUC [3, 5] [µg·min/mL] | Cmax [3, 6] [ng/mL] | SMILES | Antithrombotic activity (inhibition of thrombus formation) [1] [%] |
| --- | --- | --- | --- | --- | --- | --- | --- |
| 4.6 | 45 |  |  | 965 | 7100 | COC(=O)N[C@@H](C(=O)N1CCC[C@H]1C(=O)NCc1ccc(C(=N)N)o1)C(c1ccccc1)c1ccccc1 [Example 35, N-methoxycabonyl-D-diphenylalanyl-L-prolyl-[(5-amidino-2-furanyl)methyl]amide.TFA] |  |
| 0.6 | 25 | 1126 | 11100 |  |  | N=C(N)c1csc(CNC(=O)[C@@H]2CCCN2C(=O)[C@H](NCC(=O)O)C(c2ccccc2)c2ccccc2)n1 [Example 40, N-carboxymethyl-D-diphenylalanyl-L-prolyl-[(4-amidino-2-thiazolyl)methyl]amide.2TFA] |  |
| 0.022 | 45 | 254 |  |  | 2100 | N=C(N)c1csc(CNC(=O)[C@@H]2CCCN2C(=O)[C@H](NS(N)(=O)=O)C(c2ccccc2)c2ccccc2)c1 [Example 11, N-aminosulfonyl-D-diphenylalanyl-L-prolyl-[(4-amidino-2-thienyl)methyl]amide.TFA] | 100 |
| 0.014 | 60 |  |  | 1620 | 9600 | COC(=O)N[C@@H](C(=O)N1CCC[C@H]1C(=O)NCc1ccc(C(=N)N)s1)C(c1ccccc1)c1ccccc1 [Example 8, N-methoxycarbonyl-D-diphenylalanyl-L-prolyl-[(5-amidino-2-thienyl)methyl]amide.TFA] |  |
| 0.011 | 20 | 503 | 4900 |  |  | N=C(N)c1ccc(CNC(=O)[C@@H]2CCCN2C(=O)[C@H](NCCC(=O)O)C(c2ccccc2)c2ccccc2)s1 [Example 41, N-(2-carboxyethyl)-D-diphenylalanyl-L-prolyl-[(5-amidino-2-thienyl)methyl]amide.2TFA] | 100 |
| 0.004 |  |  |  |  |  | CS(=O)(=O)N[C@@H](C(=O)N1CCC[C@H]1C(=O)NCc1ccc(C(=N)N)s1)C(c1ccccc1)c1ccccc1 [Example 3, N-methylsulfonyl-D-diphenylalanyl-L-prolyl-[(5-amidino-2-thienyl)methyl]amide.TFA] | 100 |
